Source: patent US20200038355A1, “ANTIOXIDANTS FOR USE IN OPHTHALMIC SURGERY” (Case Western Reserve University, priority 2017, published 2020)
Entries after “also recorded” stand apart in the source; their conditions may differ.

Key:
mice = assay: Mouse mock cataract surgery in vivo, immunofluorescence of EMT markers
Method: Age-matched four month old mice were used in this study. Mice were anesthetized and a central corneal incision was made. The lens fiber mass was removed by hydrodissection and the remaining lens was carefully washed by HBSS to remove any lens fiber debris. Saline buffer was injected to help mice to restore their proper eye shape. Eye drops containing the antibiotic Ofloxacin were applied once immediately after surgery, and mice were sacrificed at 2, 3, 4 and 5 days after surgery. For each mouse, bilateral surgeries were performed and 25 μl of 10 mM NAC or 2 mM of GSH-EE was injected into right eye chamber immediately after surgery and continual eye drop topical application was given every 6 hr from 7 am to 11 pm. The untreated left eye served as a control. Eyes collected immediately after surgery served as time zero control. At least 6 mice were used in each group. At each time point, eyes were carefully dissected and placed in 4% paraformaldehyde for 18 hr, and then subjected to paraffin embedding and sectioning. For paraffin embedded slides, 6 μm thick sections were deparaffinized and rehydrated using standard procedure. The slides were rinsed with PBS for 10 min and antigen retrieval was carried out in 0.1M sodium citrate, pH 6.0 buffer in a microwave oven using a 4 min at power 5 plus 8 min at power 3 program. The slides were then blocked and permeabilized with 5% normal goat serum, 0.3% triton X-100 for 30 min. The primary antibody, rabbit polyclonal collagen I antibody (1:250) (Abcam, Cambridge, Mass.), rabbit polyclonal vimentin (1:500) (ThermoFisher), mouse monoclonal fibronectin antibody (1:5) (Developmental Studies Hybridoma Bank, DSHB, University of Iowa), mouse monoclonal active β-catenin (Tyr489) (1:10) (DSHB) or FITC labeled mouse monoclonal αSMA antibody (1:1000) (Sigma-Aldrich) were applied in 0.1% BSA PBS solution and incubated at 4° C. overnight in a humid chamber. After wash, the Alexa-488 or/and Alexa-594 conjugated secondary antibodies (ThermoFisher) were then applied and incubated at room temperature for one hour in a humid chamber. After wash, the slides were mounted with Prolong antifade with DAPI (ThermoFisher). For lens explant culture, the explant was briefly fixed with 10% formaldehyde for 10 min and then subjected to directly staining procedure without antigen retrieval procedure. Confocal microscope—All confocal images were collected by a Leica SP8 gSTED confocal microscope equipped with two 3 Hyd SP GaAsP detectors and the AOBS system lasers include a 405 nm, Argon (458, 476, 488, 496, 514 nm), a tunable white light (470 to 670 nm), and a 592 nm STED depletion laser. For proper comparison, each channel of fluorescence was adjusted to the highest sensitivity/intensity but without over saturation from samples with the strongest signal. […]

[1] = tested on: mouse lens ex vivo culture; assay: Mouse whole lens ex vivo culture, lens capsule immunoblot; assay type: cell-based; conditions: for αSMA production after BSO stimulation: ex vivo cultured mouse lens (lens capsule), 10 mM NAC or 0.5 mM GSH-EE with 500 μM BSO, 48 hr; for TGFβ2-mediated αSMA production: lens capsule from whole lens culture, 10 mM NAC or 0.5 mM GSH-EE with 1 ng/ml TGFβ2, 48 hr
Method: The isolated intact lens was rinsed three times with HBSS and then cultured in 12-well-plates with serum-free Medium 199 (ThermoFisher) with 50 unit/ml penicillin streptomycin at 37° C. in 5% CO2 incubator, as described above. The lens explant was cultured following the same procedure as described by a previous report. […] et al., Exp Eye Res 71, 591-597 (2000). In brief, the mouse lens was placed in an anterior-toposterior orientation with the anterior attached to the culture dish. The lens posterior capsule was torn/cut by the tip of extra-fine forceps and then peeled towards anterior capsule and pinned on the plastic culture dish. The lens fiber mass was removed thereafter. The explant was cultured in serum-free MEM medium supplied with 50 unit/ml penicillin streptomycin at 37° C. in 5% CO2 incubator as described above. Only healthy growing explants were used for the described study and any unhealthy looking explants, such as folded explants or those with cell detachment, were discarded. Cells were placed 24 hr before the treatment and fresh medium was replaced immediately before the treatment. The indicated concentrations of BSO, DMF, NAC, GSH-EE or TGFβ2 were added to fresh medium and incubated at various time intervals as indicated. After treatment time, the cells were harvested after three washes with ice-cold PBS and subjected to immunoblot or other assays as described below. For whole lens culture, the serum-free medium with or without BSO, NAC, GSH-EE or TGFβ2 was incubated immediately after isolation for 48 hr and the whole lens or lens capsule was collected for further analysis. For lens explant culture, 48 hr after explant culture, various stimulates were used in fresh serum-free medium for an additional 48 hr, and the explant was fixed with 10% formaldehyde for 10 min before immunofluorescence stain, as described below. The cells, whole lens, lens capsule, and lens fibers were collected and lysed in lysis buffer containing 20 mM Tris pH 7.5, 1 mM EDTA, 1 mM EGTA, 150 mM NaCl, 1% Triton X-100, 2.5 mM sodium pyrophosphate, 1 mM bα-Glycerolphosphate, 1 mM Na3VO4, 1 mg/ml Leupeptin, 1 mM PMSF on ice for 10 min. The protein concentration from the supernatant was determined by protein BCA assay (ThermoFisher). The protein extract was further processed for immunoblot analysis and probed for αSMA, collagen I, vimentin, phosphorylated Smad2, phosphorylated Smad3, phosphorylated GSK-3β and (β-catenin. All data were normalized to the level of GAPDH.

Row | Structure (SMILES) | production of EMT marker proteins (fibronectin, vimentin, collagen I, αSMA) (mice; Gclm KO mice, 2 mM GSH-EE) | αSMA production after BSO stimulation [1] | TGFβ2-mediated αSMA production [1] | TGFβ2-mediated αSMA production ([1]; listed as GSHEE) | nuclear colocalization (translocation) of active β-catenin (mice; Gclc−/− (LEGSKO) mice, 72 hr after surgery, 10 mM NAC injected into eye chamber plus eye drops every 6 hours) | fibronectin/vimentin and collagen I/αSMA expression compared to control eyes (mice; WT and LEGSKO mice, 10 mM NAC injection immediately after surgery and continuous topical application) | inhibitory effect on EMT process compared with GSH-EE (mice; in vivo cataract surgery models)
1 | CCOC(=O)CNC(=O)[C@H](CS)NC(=O)CC[C@H](N)C(=O)O [GSH-EE, glutathione ethyl ester] | partially but significantly attenuate | alleviated; also recorded: partially, but significantly, block | significantly alleviate | alleviated | – | – | –
2 | CC(=O)N[C@@H](CS)C(=O)O [NAC, N-acetyl cysteine] | – | alleviated; also recorded: completely abolish | alleviated; also recorded: completely block | – | significantly attenuated | remarkable attenuation | much higher inhibitory effect than GSH-EE
